Values joined by “and” are separate entries in the source; they are usually repeats but may differ in a detail not shown here. Equal values may be shown once. Inconclusive results and toxic doses are left out. How the source made its calls: active means survival T/C of 150% or more; inactive means T/C below 125% in these data.
System: CD2F1 mice, L1210 leukemia ip, survival T/C
Assay: NCI In Vivo Anticancer Drug Screen. Data for tumor model L1210 Leukemia (intraperitoneal) in CD2F1 (CDF1) mice
Settings: endpoint: mean survival time, higher = longer survival
In short: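 Antitumor effect is scored in animals hosting a serially transplanted tumor. Values compare compound-dosed animals against vehicle-only controls as a simple quotient.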

[1] = dose: 100.0 mg/kg/injection, schedule: Q04DX003 (ip), vehicle: saline with Tween-80
[2] = dose: 200.0 mg/kg/injection, schedule: Q01DX001 (ip), vehicle: saline with Tween-80
[3] = dose: 50.0 mg/kg/injection, schedule: Q01DX009 (ip), vehicle: saline

Measured: T/C

C=C1C=CC1=O
inactive: dose: 1.0 micrograms/kg/injection, schedule: Q01DX009 (ip), vehicle: olive oil, sesame oil, peanut oil 97 % of control | dose: 1.0 micrograms/kg/injection, schedule: Q01DX009 (ip), vehicle: other 102 % of control | dose: 6.0 micrograms/kg/injection, schedule: Q01DX009 (ip), vehicle: olive oil, sesame oil, peanut oil 97 % of control | dose: 6.0 micrograms/kg/injection, schedule: Q01DX009 (ip), vehicle: other 103 % of control | dose: 10.0 micrograms/kg/injection, schedule: Q01DX009 (ip), vehicle: olive oil, sesame oil, peanut oil 94 % of control | dose: 10.0 micrograms/kg/injection, schedule: Q01DX009 (ip), vehicle: other 101 % of control | dose: 60.0 micrograms/kg/injection, schedule: Q01DX009 (ip), vehicle: olive oil, sesame oil, peanut oil 96 % of control | dose: 60.0 micrograms/kg/injection, schedule: Q01DX009 (ip), vehicle: other 104 % of control | dose: 100.0 micrograms/kg/injection, schedule: Q01DX006 (ip), vehicle: other 101 % of control | dose: 100.0 micrograms/kg/injection, schedule: Q01DX009 (ip), vehicle: olive oil, sesame oil, peanut oil 97 % of control | dose: 100.0 micrograms/kg/injection, schedule: Q01DX009 (ip), vehicle: other 100 % of control | dose: 600.0 micrograms/kg/injection, schedule: Q01DX009 (ip), vehicle: olive oil, sesame oil, peanut oil 91 % of control | dose: 1000.0 micrograms/kg/injection, schedule: Q01DX009 (ip), vehicle: olive oil, sesame oil, peanut oil 96 % of control

CCOC(=O)/C(=C(\[O-])OCC)[n+]1ccccc1
inactive: [1] 97 % of control | dose: 200.0 mg/kg/injection, schedule: Q04DX003 (ip), vehicle: saline with Tween-80 100 % of control | dose: 400.0 mg/kg/injection, schedule: Q04DX003 (ip), vehicle: saline with Tween-80 100 % of control

NNC(=O)CCCCCCCCCCCCCO
inactive: dose: 50.0 mg/kg/injection, schedule: Q01DX001 (ip), vehicle: saline with Tween-80 98 % of control | dose: 100.0 mg/kg/injection, schedule: Q01DX001 (ip), vehicle: saline with Tween-80 101 % of control | [2] 101 % of control

CC(C)CC(NC(=O)C(CSC(c1ccccc1)(c1ccccc1)c1ccccc1)NC(c1ccccc1)(c1ccccc1)c1ccccc1)C(=O)O (centres undefined)
inactive: [3] 97 % of control | dose: 100.0 mg/kg/injection, schedule: Q01DX009 (ip), vehicle: saline 91 % of control | dose: 200.0 mg/kg/injection, schedule: Q01DX009 (ip), vehicle: saline 92 % of control | dose: 400.0 mg/kg/injection, schedule: Q01DX009 (ip), vehicle: saline 91 % of control

N#CC(C#N)=Cc1ccc(Cl)cc1
inactive: dose: 25.0 mg/kg/injection, schedule: Q04DX003 (ip), vehicle: saline with Tween-80 89 % of control | dose: 50.0 mg/kg/injection, schedule: Q04DX003 (ip), vehicle: saline with Tween-80 101 % of control | [1] 86 % of control and 98 % of control

C[n+]1ccn(Cc2ccc([N+](=O)[O-])cc2)c1
inactive: dose: 100.0 mg/kg/injection, schedule: Q01DX001 (ip), vehicle: saline 100 % of control | dose: 200.0 mg/kg/injection, schedule: Q01DX001 (ip), vehicle: saline 101 % of control

CN(C)N=C1CCC2(CC1)c1ccccc1-c1ccccc12
inactive: [2] 88 % of control | dose: 400.0 mg/kg/injection, schedule: Q01DX001 (ip), vehicle: saline with Tween-80 87 % of control

O=[N+]([O-])c1ccc(N=Cc2ccc3c(c2)OCO3)cc1
inactive: dose: 100.0 mg/kg/injection, schedule: Q01DX001 (ip), vehicle: Klucel (hydroxypropylcellulose) (HPC) 106 % of control | dose: 100.0 mg/kg/injection, schedule: Q01DX009 (ip), vehicle: Klucel (hydroxypropylcellulose) (HPC) 96 % of control | dose: 200.0 mg/kg/injection, schedule: Q01DX001 (ip), vehicle: Klucel (hydroxypropylcellulose) (HPC) 101 % of control | dose: 200.0 mg/kg/injection, schedule: Q01DX009 (ip), vehicle: Klucel (hydroxypropylcellulose) (HPC) 97 % of control | dose: 400.0 mg/kg/injection, schedule: Q01DX001 (ip), vehicle: Klucel (hydroxypropylcellulose) (HPC) 96 % of control | dose: 400.0 mg/kg/injection, schedule: Q01DX009 (ip), vehicle: Klucel (hydroxypropylcellulose) (HPC) 96 % of control

CCCCCCCCCCCCNC(=O)C[n+]1cccc(C(=O)NC)c1
inactive: dose: 12.5 mg/kg/injection, schedule: Q01DX009 (ip), vehicle: saline 98 % of control | dose: 18.8 mg/kg/injection, schedule: Q04DX003 (ip), vehicle: saline 98 % of control | dose: 25.0 mg/kg/injection, schedule: Q01DX009 (ip), vehicle: saline 101 % of control | dose: 37.5 mg/kg/injection, schedule: Q04DX003 (ip), vehicle: saline 95 % of control | [3] 98 % of control | dose: 75.0 mg/kg/injection, schedule: Q04DX003 (ip), vehicle: saline 101 % of control

COc1cc(Cl)ccc1NC(=O)OCCOc1cc(OC)c(Cl)c(OC)c1
inactive: dose: 100.0 mg/kg/injection, schedule: Q01DX009 (ip), vehicle: saline with Tween-80 101 % of control | dose: 200.0 mg/kg/injection, schedule: Q01DX009 (ip), vehicle: saline with Tween-80 103 % of control | dose: 400.0 mg/kg/injection, schedule: Q01DX009 (ip), vehicle: saline with Tween-80 101 % of control

CC(O)C(=O)[O][Hg][c]1ccccc1 (centres undefined)
inactive: dose: 10.0 mg/kg/injection, schedule: Q04DX003 (ip), vehicle: saline with Tween-80 92 % of control

N/N=C(\N)c1ccc2ccc3cccnc3c2n1
inactive: dose: 100.0 mg/kg/injection, schedule: Q04DX003 (ip), vehicle: saline 89 % of control | dose: 200.0 mg/kg/injection, schedule: Q04DX003 (ip), vehicle: saline 104 % of control | dose: 400.0 mg/kg/injection, schedule: Q04DX003 (ip), vehicle: saline 108 % of control

From PubChem BioAssay AID256 (DTP/NCI, 2004)
